Where two headings read alike, the source gives them in different places.
Key:
Design in all cases: species or system guinea pig (female Sprague-Dawley)
[1] = biological target: T1, A2 receptor of the coronary artery (Cavia porcellus, UniProt P46616); assay: Coronary flow increase in isolated perfused heart (Langendorff preparation)
T1 construct: perfused hearts from female Sprague-Dawley guinea pigs in an isolated Langendorff heart preparation; from tissue; host or cells: isolated perfused guinea pig heart (Langendorff), coronary vasculature
Experimental: (§1) Assays of the cardiovascular potency of the above compounds at the A1 receptors of the SA node and at the A2 receptor of the coronary artery employed perfused hearts from female Sprague-Dawley guinea pigs in an isolated Langendorff heart preparation. An assay consists of an infusion of a spectophotometrically standardized solution of test compound directly into the aortic cannula at rates increasing stepwise every 5 minutes. Collection of the total cardiac effluent during the first half of each infusion period provides a measure of coronary flow (A2 effect). The concentration of test compound required to produce a half-maximal increase in coronary flow is determined. Registration of the ECG assesses the effect of the test compound on SA node (stimulus to Q interval, A1 effect). The concentration of test compound required to produce a half-maximal prolongation of stimulus to Q interval is determined. […] The ratio of A1 and A2 effects of test compounds are calculated to provide the selectivity ratio.

[2] = biological target: T2, A1 receptors of the SA node (Cavia porcellus, UniProt P47745); assay: SQ (stimulus to Q interval) prolongation in isolated perfused heart (Langendorff preparation); conditions: isolated perfused guinea pig heart; concentration for half-maximal prolongation of stimulus to Q interval; read-out: SQ Prolongation (A1) ED50
T2 construct: perfused hearts from female Sprague-Dawley guinea pigs in an isolated Langendorff heart preparation; from tissue; host or cells: isolated perfused guinea pig heart (Langendorff), nodal tissue
T2 sequence (P47745 1-326): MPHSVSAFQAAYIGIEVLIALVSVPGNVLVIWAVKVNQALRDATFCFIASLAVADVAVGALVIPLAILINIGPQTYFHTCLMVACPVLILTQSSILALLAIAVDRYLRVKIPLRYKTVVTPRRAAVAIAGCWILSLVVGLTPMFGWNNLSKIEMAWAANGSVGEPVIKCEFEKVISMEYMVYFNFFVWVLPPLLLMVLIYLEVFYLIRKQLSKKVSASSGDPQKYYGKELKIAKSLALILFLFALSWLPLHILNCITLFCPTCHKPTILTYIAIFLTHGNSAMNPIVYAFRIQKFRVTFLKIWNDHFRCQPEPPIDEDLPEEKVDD
Experimental: as §1

[3] = tested on: A2 receptor of the coronary artery; assay: Coronary flow increase in isolated perfused heart (Langendorff preparation); conditions: ratio of A1 (SQ prolongation) and A2 (coronary flow) effects
Experimental: as §1

[4] = isolated perfused guinea pig heart, concentration for half-maximal increase in coronary flow, stepwise infusion every 5 minutes, read-out: Coronary Blood Flow Increase (A2) EC50

T1 sequence (P46616 whole entry, the tested form may be a part): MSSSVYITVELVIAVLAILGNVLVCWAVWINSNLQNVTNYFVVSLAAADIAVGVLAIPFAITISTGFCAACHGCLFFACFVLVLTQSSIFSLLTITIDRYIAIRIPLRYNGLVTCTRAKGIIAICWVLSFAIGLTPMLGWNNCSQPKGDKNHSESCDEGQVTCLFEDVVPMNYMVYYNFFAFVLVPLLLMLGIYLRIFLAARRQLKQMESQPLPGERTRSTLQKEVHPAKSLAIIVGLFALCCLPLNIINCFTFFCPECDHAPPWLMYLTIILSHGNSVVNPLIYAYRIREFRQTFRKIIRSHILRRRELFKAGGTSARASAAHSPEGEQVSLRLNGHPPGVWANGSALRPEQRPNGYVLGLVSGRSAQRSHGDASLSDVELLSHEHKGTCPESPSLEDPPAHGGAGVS

Structure (SMILES) | EC50 [1, 4] | EC50 [2] | other results
Nc1nc(OCCc2cccs2)nc2c1ncn2[C@@H]1O[C@H](CO)[C@@H](O)[C@H]1O [Example 13, 2-[2-(2-thienyl)ethoxy]adenosine] |  |  | EC50 [1]: 3.7 nM
Nc1nc(OCCC2CCCCC2)nc2c1ncn2[C@@H]1O[C@H](CO)[C@@H](O)[C@H]1O [Example 5, 2-(2-Cyclohexylethoxy)adenosine] |  | 8630 nM | 
Nc1nc(OCc2ccccc2)nc2c1ncn2[C@@H]1O[C@H](CO)[C@@H](O)[C@H]1O [Example 6, 2-benzyloxyadenosine] | 419 nM |  | Selectivity (A1/A2) [3]: 15
CC(COc1nc(N)c2ncn([C@@H]3O[C@H](CO)[C@@H](O)[C@H]3O)c2n1)c1ccccc1 (stereo partly drawn) [Example 17, 2-(2-phenyl-1-propoxy)adenosine] | 9 nM | 53100 nM | 
CC[C@H](COc1nc(N)c2ncn([C@@H]3O[C@H](CO)[C@@H](O)[C@H]3O)c2n1)c1ccccc1 [Example 19, 2-[(2S)-phenyl-1-butoxy]adenosine] | 31.4 nM | 27400 nM | 
Nc1nc(OCCCCc2ccccc2)nc2c1ncn2[C@@H]1O[C@H](CO)[C@@H](O)[C@H]1O [Example 20, 2-(4-phenyl-1-butoxy)adenosine] |  | 7360 nM | EC50 [1]: 9.9 nM
Nc1nc(OC2CCCCC2)nc2c1ncn2[C@@H]1O[C@H](CO)[C@@H](O)[C@H]1O [Example 4, 2-Cyclohexyloxyadenosine] | 657 nM | 100000 nM | 
CCNC(=O)[C@H]1O[C@@H](n2cnc3c(N)nc(OCCc4ccccc4)nc32)[C@H](O)[C@@H]1O [Example 22, 2-(2-phenyl)ethoxy-5'-N-ethylcarboxamidoadenosine] | 1.3 nM | 15000 nM | 
Nc1nc(OCCCC2CCCCC2)nc2c1ncn2[C@@H]1O[C@H](CO)[C@@H](O)[C@H]1O [Example 23, 2-(3-cyclohexyl)propoxyadenosine] |  | 3760 nM | 
CC[C@@H](COc1nc(N)c2ncn([C@@H]3O[C@H](CO)[C@@H](O)[C@H]3O)c2n1)c1ccccc1 [Example 18] |  |  | Selectivity (A1/A2) [3]: 50
COc1cc(CCOc2nc(N)c3ncn([C@@H]4O[C@H](CO)[C@@H](O)[C@H]4O)c3n2)cc(OC)c1OC [Example 12, 2-[2-(3,4,5-trimethoxyphenyl)ethoxy]adenosine] | 22 nM |  | 
Nc1nc(OC2CCCC2)nc2c1ncn2[C@@H]1O[C@H](CO)[C@@H](O)[C@H]1O [Example 3, 2-Cyclopentyloxyadenosine] | 91.7 nM | 79400 nM | 

Further lines, with some results ahead:

EC50 [1, 4] | EC50 [2] | Structure (SMILES) | other results
61.3 nM |  | Nc1nc(OCCCc2ccccc2)nc2c1ncn2[C@@H]1O[C@H](CO)[C@@H](O)[C@H]1O [Example 1, 2-(3-phenyl-1-propoxy)adenosine] | 
0.9 nM |  | Nc1nc(OCCc2ccc(F)cc2)nc2c1ncn2[C@@H]1O[C@H](CO)[C@@H](O)[C@H]1O [Example 2, 2-[2-(4-fluorophenyl)ethoxy]adenosine] | 
1.4 nM |  | COc1ccc(CCOc2nc(N)c3ncn([C@@H]4O[C@H](CO)[C@@H](O)[C@H]4O)c3n2)cc1 [Example 10, 2-[2-(4-methoxyphenyl)ethoxy]adenosine] | 
32 nM |  | COc1ccccc1CCOc1nc(N)c2ncn([C@@H]3O[C@H](CO)[C@@H](O)[C@H]3O)c2n1 [Example 8, 2-[2-(2-methoxyphenyl)ethoxy]adenosine] | 
2.8 nM |  | Nc1nc(OCCc2ccccc2)nc2c1ncn2[C@@H]1O[C@H](CO)[C@@H](O)[C@H]1O [Example 7, 2-(2-phenylethoxy)adenosine] | 
3.8 nM |  | Cc1ccccc1CCOc1nc(N)c2ncn([C@@H]3O[C@H](CO)[C@@H](O)[C@H]3O)c2n1 [Example 11, 2-[2-(2-methylphenyl)ethoxy]adenosine] | 
2.6 nM |  | COc1cccc(CCOc2nc(N)c3ncn([C@@H]4O[C@H](CO)[C@@H](O)[C@H]4O)c3n2)c1 [Example 9, 2-[2-(3-methoxyphenyl)ethoxy]adenosine] | 
 | 18800 nM | Nc1nc(OCCc2ccsc2)nc2c1ncn2[C@@H]1O[C@H](CO)[C@@H](O)[C@H]1O [Example 14, 2-[2-(3-thienyl)ethoxy]adenosine] | 

Reference: patent US5140015A, “2-aralkoxy and 2-alkoxy adenosine derivatives as coronary vasodilators and antihypertensive agents” (Whitby Research, Inc., priority 1990, dated 1992)
